Results: the Bradley open melting point set (2014)
Where “and” joins values, the source holds several entries; their conditions need not be identical. Equal values may be shown once.

| melting point | SMILES |
| --- | --- |
| 102 °C | O=C(c1ccccc1)c1ccc(Cl)c(Cl)c1 [3,4-dichlorobenzophenone] |
| 38 °C | OCc1ccc(Cl)c(Cl)c1 [3,4-dichlorobenzyl alcohol] |
| -15 °C | Cc1ccc(Cl)c(Cl)c1 [3,4-dichlorotoluene] |
| 133 °C | NC(=O)c1ccc(F)c(F)c1 [3,4-difluorobenzamide] |
| 129 °C | O=C(O)Cc1ccc(O)c(O)c1 [3,4-dihydroxyphenylacetic acid] |
| -114 °C | CC=C(C)C(C)C [3,4-dimethyl-cis-2-pentene] |
| 166 °C | Cc1ccc(C(=O)O)cc1C [3,4-dimethylbenzoic acid] |
| -70 °C | CC(CC(=O)O)CC(C)(C)C (stereo not drawn) [3,5,5-trimethylhexanoic acid] |
| 47 °C | CN1C(=O)OC(C)(C)C1=O [3,5,5-trimethyloxazolidine-2,4-dione] |
| 131 °C | CC(C)(C)c1cc(C(=Nc2ccccc2)Nc2ccccc2)cc(C(C)(C)C)c1O [3,5-Di-tert-butyl-4-hydroxy-N,N'-diphenyl-benzamidine] |
| 82 °C | N#C/C=C/c1cc(C(F)(F)F)cc(C(F)(F)F)c1 [3,5-bis(trifluoromethyl)cinnamonitrile] |
| 156 °C | CC(C)(C)c1cc(CC(=O)O)cc(C(C)(C)C)c1O [3,5-di-tert-butyl-4-hydroxyphenylacetic acid] |
| 182 °C | O=Cc1cc(Br)c(O)c(Br)c1 [3,5-dibromo-4-hydroxybenzaldehyde] |
| 206 °C | NNC(=O)c1cc(Cl)cc(Cl)c1 [3,5-dichlorobenzhydrazide] |
| 186 °C | O=C(O)c1cc(Cl)cc(Cl)c1 [3,5-dichlorobenzoic acid] |
| 224 °C | O=C(O)c1cc(Cl)cc(Cl)c1O [3,5-dichlorosalicylic acid] |
| 51 °C | COc1cc(N=C=S)cc(OC)c1 [3,5-dimethoxyphenyl isothiocyanate] |
| 113 °C | Cc1cc(C)n(C(N)=O)n1 [3,5-dimethyl-1h-pyrazole-1-carboxamide] |
| 10 °C | Cc1cc(C)cc(N)c1 [3,5-dimethylaniline] |
| 63 °C | Cc1cc(C)cc(O)c1 [3,5-dimethylphenol] |
| 54 °C | CCC(C)(O)C#CC(C)(O)CC (stereo not drawn) [3,6-dimethyl-4-octyn-3,6-diol] |
| 221 °C | CC(CCC(=O)O)C1CCC2C3C(O)CC4CC(O)CCC4(C)C3CC(=O)C12C (stereo not drawn) [3,7-dihydroxy-12-oxocholan-24-oic acid] |
| 191 °C | O=C1Nc2ccccc2C[C@H]1c1ccccc1F [3-(2-Fluorophenyl)-1,2,3,4-tetrahydro-2-quinolone] |
| 184 °C | Oc1cccc(C2CNCCN2)c1 (stereo not drawn) [3-(2-piperazinyl)phenol] |

| melting point | SMILES |
| --- | --- |
| 134 °C | Nc1ccc(CCC(=O)O)cc1 [3-(4-aminophenyl)propionic acid] |
| 80 °C | OCC(O)COc1ccc(Cl)cc1 (stereo not drawn) [3-(4-chlorophenoxy)-1,2-propanediol] |
| 166 °C | O=C(O)CC(CC(=O)O)c1ccc(Cl)cc1 [3-(4-chlorophenyl)glutaric acid] |
| 157 °C | COc1c(B(O)O)cccc1C(=O)O [3-(Dihydroxyboryl)-2-methoxybenzoic acid] |
| 153 °C | O=C(Nc1cccc(OC(=O)c2ccccc2)c1)c1ccccc1 [3-(benzoylamino)phenyl benzoate] |
| 143 °C | CC(C)(C)OC(=O)NC(CC(=O)O)c1ccccc1F (stereo not drawn) [3-(boc-amino)-3-(2-fluorophenyl)propionic acid] |
| 82 °C | COc1cccc(C(CC(=O)O)NC(=O)OC(C)(C)C)c1 (stereo not drawn) [3-(boc-amino)-3-(3-methoxyphenyl)propionic acid] |
| 37 °C | COC(=O)c1cccc(N=C=O)c1 [3-(methoxycarbonyl)phenyl isocyanate] |
| 160 °C | CSc1cccc(B(O)O)c1 [3-(methylthio)benzeneboronic acid] |
| 29 °C | C/C(=C/C(=O)O)C(F)(F)F [3-(trifluoromethyl)crotonic acid] |
| 81.5 °C | Oc1cccc(Nc2ccccc2)c1 [3-Anilinophenol] |
| 110 °C | Cc1cccc(C(=O)O)c1 [3-Methylbenzoic acid] |
| 142 °C | O=C(O)c1cccc([N+](=O)[O-])c1 [3-Nitrobenzoic acid] |
| 86 °C | CC(=O)CC(=O)Nc1ccccc1 [3-Oxo-N-phenylbutanamide] |
| 142 °C | CCOC(=O)c1[nH]c(C)c(C(C)=O)c1C [3-acetyl-2,4-dimethyl-5-(ethoxycarbonyl)pyrrole] |
| 99 °C | CC(=O)c1cccc(C#N)c1 [3-acetylbenzonitrile] |
| 24 °C | CC(=O)c1cccc(N=C=S)c1 [3-acetylphenyl isothiocyanate] |
| 271 °C | NC1=C(c2ccccc2)C(=O)c2ccccc21 [3-amino-2-phenylindenone] |
| 114 °C | Nc1n[nH]c(-c2ccccc2)c1Br [3-amino-4-bromo-5-phenyl-1h-pyrazole] |
| 250 °C | Cc1ccc(B(O)O)cc1N [3-amino-4-methylbenzeneboronic acid] |
| 175 °C | Nc1cccc(C(=O)O)c1 [3-aminobenzoic acid] |
| 124 °C | Nc1cccc(O)c1 [3-aminophenol] |
| 94 °C | Nc1cnc2ccccc2c1 [3-aminoquinoline] |
| 164 °C | O=C(O)c1cccc(C(=O)c2ccccc2)c1 [3-benzoylbenzoic acid] |

| melting point | SMILES |
| --- | --- |
| 134 °C | O=C(O)c1cccc(OCc2ccccc2)c1 [3-benzyloxybenzoic acid] |
| 166 °C | O=c1on(-c2ccccc2)c(Br)c1-c1ccccc1 [3-bromo-2,4-diphenylisoxazol-5(2H)-one] |
| 220 °C | COc1ccc(C(=O)O)cc1Br [3-bromo-4-methoxybenzoic acid] |
| 122 °C | COc1ccc(C#N)cc1Br [3-bromo-4-methoxybenzonitrile] |
| 166 °C | OB(O)c1cccc(Br)c1 [3-bromobenzeneboronic acid] |
| 14 °C | Brc1cnc2ccccc2c1 [3-bromoquinoline] |
| -40 °C | Cc1cccc(Br)c1 [3-bromotoluene] |
| -63 °C | C#CCCO [3-butyn-1-ol] |
| 2 °C | Cc1c(N)cccc1Cl [3-chloro-2-methylaniline] |
| 56 °C | Clc1nsnc1-c1cccnc1 [3-chloro-4-(3-pyridyl)-1,2,5-thiadiazole] |
| 73 °C | N#Cc1ccncc1Cl [3-chloro-4-cyanopyridine] |
| 258 °C | OB(O)c1ccc(F)c(Cl)c1 [3-chloro-4-fluorobenzeneboronic acid] |
| 227 °C | Cc1ccc(B(O)O)cc1Cl [3-chloro-4-methylbenzeneboronic acid] |
| 71 °C | O=S(=O)(Cl)Cc1cccc(Cl)c1 [3-chlorophenylmethanesulfonyl chloride] |
| 108 °C | N#Cc1cccnc1Oc1ccccc1 [3-cyano-2-phenoxypyridine] |
| -4 °C | CCCCCCCC(=O)CC [3-decanone] |
| 189 °C | CCc1nnc2cc(-c3ccccc3)[nH]n12 [3-ethyl-6-phenyl-5H-pyrazolo[5,1-c][1,2,4]triazole] |
| 41 °C | Cc1c(F)ccc([N+](=O)[O-])c1C [3-fluoro-1,2-dimethyl-6-nitrobenzene] |
| 67 °C | [O-][n+]1cccc(F)c1 [3-fluoropyridine n-oxide] |
| 163 °C | Cc1occc(=O)c1O [3-hydroxy-2-methyl-4-pyrone] |
| 192 °C | COc1ccc(OC)c2c1C(=O)OC2O (stereo not drawn) [3-hydroxy-4,7-dimethoxy-2-benzofuran-1(3H)-one] |
| 185 °C | COc1cc(OC)c2c(c1)C(O)OC2=O (stereo not drawn) [3-hydroxy-5,7-dimethoxy-2-benzofuran-1(3H)-one] |
| 114 °C | O=C(c1ccccc1)c1cccc(O)c1 [3-hydroxybenzophenone] |
| 72 °C | OCc1cccc(O)c1 [3-hydroxybenzyl_alcohol] |

| SMILES | melting point |
| --- | --- |
| O=[N+]([O-])/C=C/c1ccc(Cl)c(Cl)c1 [3,4-dichloro-beta-nitrostyrene] | 93 °C |
| Nc1ccc(Cl)c(Cl)c1 [3,4-dichloroaniline] | 72 °C |
| O=[N+]([O-])c1ccc(Cl)c(Cl)c1 [3,4-dichloronitrobenzene] | 41 °C (2×) and 41.2 °C |
| Oc1ccc(Cl)c(Cl)c1 [3,4-dichlorophenol] [listing 1 of 2 here] | 67 °C |
| Oc1ccc(Cl)c(Cl)c1 [3,4-dichlorophenol] [listing 2 of 2 here] | 66 °C |
| Cc1ccc(N)cc1C [3,4-dimethylaniline] | 51 °C |
| O=C(Cl)c1cc([N+](=O)[O-])cc([N+](=O)[O-])c1 [3,5-Dinitrobenzoyl chloride] | 69 °C |
| O=Cc1cc(Br)cc(Br)c1 [3,5-dibromobenzaldehyde] | 91 °C |
| O=C(O)c1cc(Cl)c(O)c(Cl)c1 [3,5-dichloro-4-hydroxybenzoic acid] | 268 °C |
| Oc1cc(Cl)cc(Cl)c1 [3,5-dichlorophenol] | 68 °C |
| O=Cc1cc([N+](=O)[O-])cc([N+](=O)[O-])c1O [3,5-dinitrosalicylaldehyde] | 73 °C |
| CCCOC1CCC2(C)C(CC(=O)C3C2CCC2(C)C(OCCC)CCC32)C1 (stereo not drawn) [3,17-dipropoxyandrostan-7-one] | 163 °C |
| COc1ccc(C2=CCC3(C)C(CCC4C3CCC3(C)C(OC(C)=O)CCC43)C2)cc1 (stereo not drawn) [3-(4-methoxyphenyl)androst-2-en-17-yl acetate] | 179 °C |
| C[C@]12CC[C@H](O)CC1=CC[C@@H]1[C@@H]2CC[C@]2(C)C(=O)CC[C@@H]12 [3-Beta-Hydroxy-5-Androsten-17-One] | 140 °C |
| O=[N+]([O-])c1cccc(O)c1 [3-Nitrophenol] | 97 °C |
| CC(N)CCc1ccccc1 (stereo not drawn) [3-amino-1-phenylbutane] | -50 °C |
| Nc1cccc(Cl)c1 [3-chloroaniline] | -10 °C |
| N#Cc1cccc(Cl)c1 [3-chlorobenzonitrile] | 41 °C |
| Clc1cccc(-c2ccccc2)c1 [3-chlorobiphenyl] | 18 °C |
| O=C(O)Cc1cccc(Cl)c1 [3-chlorophenylacetic acid] | 79 °C |
| N#Cc1cccc(C(=O)O)c1 [3-cyanobenzoic acid] | 222 °C |
